According to the supplement of paper PMC4862054:

Tested on: CAL-85-1
Assay: normalised response (% of control), CellTox Green; higher = less cell death (100 = DMSO, 0 = benzethonium chloride kill control)
Details: incubation time: 72 h
Outline: (§1)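 Compound was dispensed into 384-well plates at 5 concentrations in 10-fold steps spanning a 10,000-fold range specific to that compound. Breast cancer cell lines were added as 20 µl suspension and left for 72 h before CellTox Green fluorescence (485/520 nm) and then CellTiter-Glo luminescence, read after 10 min at room temperature. Each reported value is the normalised signal at one concentration, with 0.1 % DMSO set at 100 and a positive kill control at 0 on each plate.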

Compound | normalised response [%]
c1ccc2c(CCNc3ccc(Nc4ccncc4)cc3)c[nH]c2c1 [Serdemetan] (1000 nM) | 102
CN(C)CCOc1ccc(/C(=C(/CCCl)c2ccccc2)c2ccccc2)cc1 [Toremifene] (1000 nM) | 106
CN(C)CCOc1ccc(/C(=C(/CCCl)c2ccccc2)c2ccccc2)cc1 [Toremifene] (10000 nM) | 79.9

Tested on: CAL-51
Assay: as above
Details: incubation time: 72 h
Outline: as §1

Compound | normalised response [%]
N#Cc1ccc(COC[C@H]2O[C@@H](n3c(NCc4ccc(Cl)c(Cl)c4)nc4c(N)ncnc43)[C@H](O)[C@@H]2O)cc1 (1000 nM) | 119
N#Cc1ccc(COC[C@H]2O[C@@H](n3c(NCc4ccc(Cl)c(Cl)c4)nc4c(N)ncnc43)[C@H](O)[C@@H]2O)cc1 (10000 nM) | 91.6
COc1cc(OC2CCN(C)CC2)ccc1Nc1ncc2c(n1)n(C1CCCC1)c(=O)n2C [AZ 3146] (1000 nM) | 51.4
COc1cc(OC2CCN(C)CC2)ccc1Nc1ncc2c(n1)n(C1CCCC1)c(=O)n2C [AZ 3146] (10000 nM) | 27.1
CN(C)c1nc(N(C)C)nc(N(C)C)n1 [Altretamine] (1000 nM) | 111
CN(C)c1nc(N(C)C)nc(N(C)C)n1 [Altretamine] (10000 nM) | 109
O=C(/C=C/c1cccc(S(=O)(=O)Nc2ccccc2)c1)NO [Belinostat] (1000 nM) | 50.8
O=C(/C=C/c1cccc(S(=O)(=O)Nc2ccccc2)c1)NO [Belinostat] (10000 nM) | -15.2
O=P1(N(CCCl)CCCl)NCCCO1 (centres undefined) [Cyclophosphamide] (4000 nM) | 112
O=P1(N(CCCl)CCCl)NCCCO1 (centres undefined) [Cyclophosphamide] (40000 nM) | 105
C=C1C[C@@H]2[C@H](CC[C@]3(C)C(=O)CC[C@@H]23)[C@@]2(C)C=CC(=O)C=C12 [Exemestane] (1000 nM) | 106
C=C1C[C@@H]2[C@H](CC[C@]3(C)C(=O)CC[C@@H]23)[C@@]2(C)C=CC(=O)C=C12 [Exemestane] (10000 nM) | 103
COc1cc2ncnc(Nc3ccc(F)c(Cl)c3)c2cc1OCCCN1CCOCC1 [Gefitinib] (1000 nM) | 108
COc1cc2ncnc(Nc3ccc(F)c(Cl)c3)c2cc1OCCCN1CCOCC1 [Gefitinib] (10000 nM) | 104
O=C(Nc1ccncc1)C(=O)c1cn(Cc2ccc(Cl)cc2)c2ccccc12 [Indibulin] (1000 nM) | 40.5
O=C(Nc1ccncc1)C(=O)c1cn(Cc2ccc(Cl)cc2)c2ccccc12 [Indibulin] (10000 nM) | -2.59
NC(=O)c1ccc(I)c([N+](=O)[O-])c1 [Iniparib] (1000 nM) | 90.7
NC(=O)c1ccc(I)c([N+](=O)[O-])c1 [Iniparib] (10000 nM) | 83.7
CCc1c2c(nc3ccc(OC(=O)N4CCC(N5CCCCC5)CC4)cc13)-c1cc3c(c(=O)n1C2)COC(=O)[C@]3(O)CC [Irinotecan] (1000 nM) | 61.9
CCc1c2c(nc3ccc(OC(=O)N4CCC(N5CCCCC5)CC4)cc13)-c1cc3c(c(=O)n1C2)COC(=O)[C@]3(O)CC [Irinotecan] (10000 nM) | -10.4
Oc1ccc2c(c1)CC[C@H](c1ccccc1)[C@@H]2c1ccc(OCCN2CCCC2)cc1 [Lasofoxifene] (100 nM) | 123
Oc1ccc2c(c1)CC[C@H](c1ccccc1)[C@@H]2c1ccc(OCCN2CCCC2)cc1 [Lasofoxifene] (1000 nM) | 105
Cc1ccc(NC(=O)c2ccc(CN3CCN(C)CC3)cc2)cc1Nc1nc(-c2cccnc2)cs1 [Masitinib] (1000 nM) | 103
Cc1ccc(NC(=O)c2ccc(CN3CCN(C)CC3)cc2)cc1Nc1nc(-c2cccnc2)cs1 [Masitinib] (10000 nM) | 74.2
O=C(Nc1cccnc1)N1CCC(Cc2cccc(Oc3ccc(C(F)(F)F)cn3)c2)CC1 [PF-3845] (1000 nM) | 117
COCC1(CO)C(=O)C2CCN1CC2 (centres undefined) [Prima-1 Met] (10000 nM) | 115
CNC(=O)c1cc(Oc2ccc(NC(=O)Nc3ccc(Cl)c(C(F)(F)F)c3)c(F)c2)ccn1 [Regorafenib] (1000 nM) | 87.7
c1ccc2c(CCNc3ccc(Nc4ccncc4)cc3)c[nH]c2c1 [Serdemetan] (1000 nM) | -44.2
CN(C)CCOc1ccc(/C(=C(/CCCl)c2ccccc2)c2ccccc2)cc1 [Toremifene] (1000 nM) | 102
CN(C)CCOc1ccc(/C(=C(/CCCl)c2ccccc2)c2ccccc2)cc1 [Toremifene] (10000 nM) | 104

Tested on: MFM-223
Assay: as above
Details: incubation time: 72 h
Outline: as §1

Compound | normalised response [%]
N#Cc1ccc(COC[C@H]2O[C@@H](n3c(NCc4ccc(Cl)c(Cl)c4)nc4c(N)ncnc43)[C@H](O)[C@@H]2O)cc1 (1000 nM) | 104
N#Cc1ccc(COC[C@H]2O[C@@H](n3c(NCc4ccc(Cl)c(Cl)c4)nc4c(N)ncnc43)[C@H](O)[C@@H]2O)cc1 (10000 nM) | 2.84
COc1cc(OC2CCN(C)CC2)ccc1Nc1ncc2c(n1)n(C1CCCC1)c(=O)n2C [AZ 3146] (1000 nM) | 101
COc1cc(OC2CCN(C)CC2)ccc1Nc1ncc2c(n1)n(C1CCCC1)c(=O)n2C [AZ 3146] (10000 nM) | 104
CN(C)c1nc(N(C)C)nc(N(C)C)n1 [Altretamine] (1000 nM) | 99.7
CN(C)c1nc(N(C)C)nc(N(C)C)n1 [Altretamine] (10000 nM) | 96.6
O=C(/C=C/c1cccc(S(=O)(=O)Nc2ccccc2)c1)NO [Belinostat] (1000 nM) | 78.5
O=C(/C=C/c1cccc(S(=O)(=O)Nc2ccccc2)c1)NO [Belinostat] (10000 nM) | 62.1
O=P1(N(CCCl)CCCl)NCCCO1 (centres undefined) [Cyclophosphamide] (4000 nM) | 94.8
O=P1(N(CCCl)CCCl)NCCCO1 (centres undefined) [Cyclophosphamide] (40000 nM) | 102
C=C1C[C@@H]2[C@H](CC[C@]3(C)C(=O)CC[C@@H]23)[C@@]2(C)C=CC(=O)C=C12 [Exemestane] (1000 nM) | 100
C=C1C[C@@H]2[C@H](CC[C@]3(C)C(=O)CC[C@@H]23)[C@@]2(C)C=CC(=O)C=C12 [Exemestane] (10000 nM) | 86.2
COc1cc2ncnc(Nc3ccc(F)c(Cl)c3)c2cc1OCCCN1CCOCC1 [Gefitinib] (1000 nM) | 65.4
COc1cc2ncnc(Nc3ccc(F)c(Cl)c3)c2cc1OCCCN1CCOCC1 [Gefitinib] (10000 nM) | 104
O=C(Nc1ccncc1)C(=O)c1cn(Cc2ccc(Cl)cc2)c2ccccc12 [Indibulin] (1000 nM) | 71.8
O=C(Nc1ccncc1)C(=O)c1cn(Cc2ccc(Cl)cc2)c2ccccc12 [Indibulin] (10000 nM) | 72.9
NC(=O)c1ccc(I)c([N+](=O)[O-])c1 [Iniparib] (1000 nM) | 96.7
NC(=O)c1ccc(I)c([N+](=O)[O-])c1 [Iniparib] (10000 nM) | 95.6
CCc1c2c(nc3ccc(OC(=O)N4CCC(N5CCCCC5)CC4)cc13)-c1cc3c(c(=O)n1C2)COC(=O)[C@]3(O)CC [Irinotecan] (1000 nM) | 101
CCc1c2c(nc3ccc(OC(=O)N4CCC(N5CCCCC5)CC4)cc13)-c1cc3c(c(=O)n1C2)COC(=O)[C@]3(O)CC [Irinotecan] (10000 nM) | 103
Oc1ccc2c(c1)CC[C@H](c1ccccc1)[C@@H]2c1ccc(OCCN2CCCC2)cc1 [Lasofoxifene] (1000 nM) | 95.5
Cc1ccc(NC(=O)c2ccc(CN3CCN(C)CC3)cc2)cc1Nc1nc(-c2cccnc2)cs1 [Masitinib] (1000 nM) | 89.7
Cc1ccc(NC(=O)c2ccc(CN3CCN(C)CC3)cc2)cc1Nc1nc(-c2cccnc2)cs1 [Masitinib] (10000 nM) | 96.5
O=C(Nc1cccnc1)N1CCC(Cc2cccc(Oc3ccc(C(F)(F)F)cn3)c2)CC1 [PF-3845] (1000 nM) | 102
COCC1(CO)C(=O)C2CCN1CC2 (centres undefined) [Prima-1 Met] (10000 nM) | 93.1
CNC(=O)c1cc(Oc2ccc(NC(=O)Nc3ccc(Cl)c(C(F)(F)F)c3)c(F)c2)ccn1 [Regorafenib] (1000 nM) | 102
c1ccc2c(CCNc3ccc(Nc4ccncc4)cc3)c[nH]c2c1 [Serdemetan] (1000 nM) | 97.8
CN(C)CCOc1ccc(/C(=C(/CCCl)c2ccccc2)c2ccccc2)cc1 [Toremifene] (1000 nM) | 92.4
CN(C)CCOc1ccc(/C(=C(/CCCl)c2ccccc2)c2ccccc2)cc1 [Toremifene] (10000 nM) | 94.7

Tested on: BT-474
Assay: as above
Details: incubation time: 72 h
Outline: as §1

Compound | normalised response [%]
N#Cc1ccc(COC[C@H]2O[C@@H](n3c(NCc4ccc(Cl)c(Cl)c4)nc4c(N)ncnc43)[C@H](O)[C@@H]2O)cc1 (1000 nM) | 100
N#Cc1ccc(COC[C@H]2O[C@@H](n3c(NCc4ccc(Cl)c(Cl)c4)nc4c(N)ncnc43)[C@H](O)[C@@H]2O)cc1 (10000 nM) | 98.8
COc1cc(OC2CCN(C)CC2)ccc1Nc1ncc2c(n1)n(C1CCCC1)c(=O)n2C [AZ 3146] (1000 nM) | 101
COc1cc(OC2CCN(C)CC2)ccc1Nc1ncc2c(n1)n(C1CCCC1)c(=O)n2C [AZ 3146] (10000 nM) | 70.2
CN(C)c1nc(N(C)C)nc(N(C)C)n1 [Altretamine] (1000 nM) | 100
CN(C)c1nc(N(C)C)nc(N(C)C)n1 [Altretamine] (10000 nM) | 102
O=C(/C=C/c1cccc(S(=O)(=O)Nc2ccccc2)c1)NO [Belinostat] (1000 nM) | 65.2
O=C(/C=C/c1cccc(S(=O)(=O)Nc2ccccc2)c1)NO [Belinostat] (10000 nM) | 21.2
O=P1(N(CCCl)CCCl)NCCCO1 (centres undefined) [Cyclophosphamide] (4000 nM) | 100
O=P1(N(CCCl)CCCl)NCCCO1 (centres undefined) [Cyclophosphamide] (40000 nM) | 99.1
C=C1C[C@@H]2[C@H](CC[C@]3(C)C(=O)CC[C@@H]23)[C@@]2(C)C=CC(=O)C=C12 [Exemestane] (1000 nM) | 97.2
C=C1C[C@@H]2[C@H](CC[C@]3(C)C(=O)CC[C@@H]23)[C@@]2(C)C=CC(=O)C=C12 [Exemestane] (10000 nM) | 105
COc1cc2ncnc(Nc3ccc(F)c(Cl)c3)c2cc1OCCCN1CCOCC1 [Gefitinib] (1000 nM) | 91
COc1cc2ncnc(Nc3ccc(F)c(Cl)c3)c2cc1OCCCN1CCOCC1 [Gefitinib] (10000 nM) | 17.4
O=C(Nc1ccncc1)C(=O)c1cn(Cc2ccc(Cl)cc2)c2ccccc12 [Indibulin] (1000 nM) | 92.1
O=C(Nc1ccncc1)C(=O)c1cn(Cc2ccc(Cl)cc2)c2ccccc12 [Indibulin] (10000 nM) | 81.4
NC(=O)c1ccc(I)c([N+](=O)[O-])c1 [Iniparib] (1000 nM) | 94.6
